From patent US8658131B2, “Compounds comprising 4-benzoylpiperidine as a sigma-1-selective ligand” (Washington University, priority 2010, dated 2014)
Structures can show the parent of a compound that is named as a salt. Where two headings read alike, the source gives them in different places.

Columns and labels:
[1] = molecular target: T1, VAChT (Homo sapiens, UniProt Q16572); settings: previous study; cited from earlier work
T1 sequence (Q16572 1-532): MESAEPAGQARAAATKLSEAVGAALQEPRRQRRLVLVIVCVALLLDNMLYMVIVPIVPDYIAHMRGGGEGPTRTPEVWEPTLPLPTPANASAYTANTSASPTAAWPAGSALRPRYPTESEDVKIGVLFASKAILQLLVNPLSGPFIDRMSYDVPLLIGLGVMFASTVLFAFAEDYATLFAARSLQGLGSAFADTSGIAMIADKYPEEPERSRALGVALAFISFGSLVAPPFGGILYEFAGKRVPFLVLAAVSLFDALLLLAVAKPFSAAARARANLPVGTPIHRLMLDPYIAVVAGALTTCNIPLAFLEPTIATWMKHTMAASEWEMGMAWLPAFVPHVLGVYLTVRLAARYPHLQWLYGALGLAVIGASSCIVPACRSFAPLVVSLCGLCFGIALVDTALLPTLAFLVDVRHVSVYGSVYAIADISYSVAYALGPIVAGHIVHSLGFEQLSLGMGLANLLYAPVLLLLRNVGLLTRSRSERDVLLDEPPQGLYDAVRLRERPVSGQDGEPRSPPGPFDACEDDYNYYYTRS

[2] = molecular target: σ1 receptor (Homo sapiens, UniProt Q99720); settings: prior art ligands of FIG. 1; read-out: σ1 receptor binding affinity; cited from earlier work
Sequence of σ1 receptor (Homo sapiens, UniProt Q99720) (Q99720 whole entry, species assumed): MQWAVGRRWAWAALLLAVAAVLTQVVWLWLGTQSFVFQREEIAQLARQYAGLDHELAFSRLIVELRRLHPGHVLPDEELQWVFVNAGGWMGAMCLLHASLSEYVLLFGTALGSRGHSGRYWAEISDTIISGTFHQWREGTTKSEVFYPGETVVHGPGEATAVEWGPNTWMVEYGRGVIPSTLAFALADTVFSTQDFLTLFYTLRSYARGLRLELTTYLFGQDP

[3] = molecular target: T2, σ1 receptors (Rattus norvegicus, UniProt Q9R0C9); experiment: σ1 binding of Table 5 compounds
T2 construct: tested in rat brain and in guinea pig membranes, respectively; from tissue; host or cells: rat brain
T2 sequence (Q9R0C9 whole entry): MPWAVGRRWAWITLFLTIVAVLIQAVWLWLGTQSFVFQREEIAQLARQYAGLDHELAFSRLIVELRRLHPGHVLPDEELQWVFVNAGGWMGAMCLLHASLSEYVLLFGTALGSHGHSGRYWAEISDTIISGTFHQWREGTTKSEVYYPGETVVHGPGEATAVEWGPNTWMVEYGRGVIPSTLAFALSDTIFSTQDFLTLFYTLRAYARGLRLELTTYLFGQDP

[4] = molecular target: T3, σ2 receptor (Rattus norvegicus, UniProt Q5U3Y7); experiment: σ2 binding of Table 5 compounds; parameters: species or system guinea pig; settings: read-out: σ2 Ki (nM) ± SEM; Table 6
T3 sequence (Q5U3Y7 1-176): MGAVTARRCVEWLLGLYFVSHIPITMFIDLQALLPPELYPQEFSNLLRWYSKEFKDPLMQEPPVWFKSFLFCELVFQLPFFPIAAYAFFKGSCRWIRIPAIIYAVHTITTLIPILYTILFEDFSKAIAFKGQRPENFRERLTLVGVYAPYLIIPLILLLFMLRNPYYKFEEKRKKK
Description: Compounds were tested for VAChT binding using highly purified Torpedo synaptic vesicles. The σ1 and σ2 binding affinities were tested in rat brain and in guinea pig membranes, respectively. Structures and Equilibrium binding constants (Ki) are reported in Table 5 and Table 6, respectively. As in previous studies, we define ligand selectivity in terms of a selectivity index which is calculated as Ki (σ1 or σ2)/Ki (VAChT).
Consequently, we also screened the target compounds for sigma binding to identify selective VAChT ligands from this new structural class of agents.

[5] = molecular target: T3, σ2 receptor; experiment: σ2 receptor binding assay, [3H]DTG, rat liver membrane homogenates; parameters: conducted using rat liver membrane homogenates; from tissue; host or cells: rat liver membrane homogenates
Description: (§1) The compounds were dissolved in DMF, DMSO, or ethanol, and then diluted in 50 mM Tris-HCl buffer containing 150 mM NaCl and 100 mM EDTA at pH 7.4, prior to performing the σ1 and σ2 receptor binding assays.
The incubation time was 2 h at room temperature. Nonspecific binding was determined from samples that contained 10 μM of cold haloperidol. All other procedures were identical to those described for the σ1 receptor binding assay above.
(§2) Ki values were calculated using the method of Cheng and Prusoff and are presented as the mean (±1 SEM).

[6] = molecular target: T4, VAChT (Tetronarce californica, UniProt P81721); experiment: biochemical; type: binding; settings: for VAChT/σ selectivity: in words; for σ1/VAChT: selectivity index Ki (σ1)/Ki (VAChT); for σ2/VAChT: selectivity index Ki (σ2)/Ki (VAChT)
T4 construct: using highly purified Torpedo synaptic vesicles; from tissue
T4 sequence (P81721 1-515): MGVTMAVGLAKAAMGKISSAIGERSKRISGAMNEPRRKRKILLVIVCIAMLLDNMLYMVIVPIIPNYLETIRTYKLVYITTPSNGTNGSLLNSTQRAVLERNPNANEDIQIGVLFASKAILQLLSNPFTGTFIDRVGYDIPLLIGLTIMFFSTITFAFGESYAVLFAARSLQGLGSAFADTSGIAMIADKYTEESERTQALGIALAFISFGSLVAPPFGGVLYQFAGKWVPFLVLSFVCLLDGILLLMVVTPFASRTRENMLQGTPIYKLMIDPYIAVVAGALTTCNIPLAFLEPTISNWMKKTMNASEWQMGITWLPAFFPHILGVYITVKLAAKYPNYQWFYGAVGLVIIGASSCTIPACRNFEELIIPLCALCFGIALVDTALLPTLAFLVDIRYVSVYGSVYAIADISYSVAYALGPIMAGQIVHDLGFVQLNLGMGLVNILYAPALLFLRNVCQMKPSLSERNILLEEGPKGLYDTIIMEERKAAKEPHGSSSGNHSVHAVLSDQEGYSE

[7] = molecular target: T5, σ1 receptor (Cavia porcellus, UniProt Q60492); experiment: σ1 receptor binding assay, (+)-[3H]pentazocine, guinea pig brain membranes
T5 construct: using guinea pig brain membrane homogenates; from tissue; host or cells: guinea pig brain membrane homogenates
T5 sequence (Q60492 whole entry): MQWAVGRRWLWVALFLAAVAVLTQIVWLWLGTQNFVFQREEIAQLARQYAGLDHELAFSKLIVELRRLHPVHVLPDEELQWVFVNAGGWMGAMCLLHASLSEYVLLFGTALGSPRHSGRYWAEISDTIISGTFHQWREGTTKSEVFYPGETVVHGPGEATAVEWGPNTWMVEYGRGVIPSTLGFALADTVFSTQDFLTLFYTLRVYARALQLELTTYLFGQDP
Description: as §1
The total incubation time was 90 min at room temperature. Nonspecific binding was determined from samples that contained 10 μM of cold haloperidol. After 90 min, the reaction was quenched by adding 150 μL of ice-cold wash buffer (10 mM Tris-HCl, 150 mM NaCl, pH 7.4) using a 96 channel transfer pipet (Fisher Scientific, Pittsburgh, Pa.). The samples were harvested and filtered rapidly through a 96-well fiberglass filter plate (Millipore, Billerica, Mass.) that had been presoaked with 100 μL of 50 mM Tris-HCl buffer at pH 8.0 for 1 h.
as §2

[8] = molecular target: T6, human vesicular acetylcholine transporter (VAChT) (Homo sapiens, UniProt Q16572); experiment: VAChT binding assay, (−)-[3H]vesamicol, human VAChT expressed in PC12 cells
T6 construct: expressed in transfected cells; host or cells: PC12 A123.7 cells (crude extract / homogenized, partially clarified cells)
T6 sequence (Q16572 1-532): T1 sequence (Q16572 1-532)
Description: In vitro binding assays of these novel compounds to VAChT were conducted with human vesicular acetylcholine transporter (VAChT) permanently expressed in PC12^A123.7 cells at about 50 pmol/mg of crude extract. […] Duplicate data were averaged and fitted by regression with a rectangular hyperbola to estimate the Ki value of the novel compound. All compounds were independently assayed at least two times.

[9] = Sigma-2 σ1 (nM), Table 4, Ki values of VAChT specific compounds, tissue not given

## O=C(c1ccc(F)cc1)C1CCN(C2CCN(C(=O)c3ccc(F)cc3)CC2O)CC1 (centres unmarked) (as salt: oxalate) [Compound 15a, (3′-Hydroxy-[1,4′-bipiperidine]-1′,4-diyl)bis(4-fluorophenyl)methanone]
other
  melting point: 213 °C (dec.)

## O=C(c1ccc(F)cc1)C1CCN(C2CCN(C(=O)c3ccccc3)CC2O)CC1 (centres unmarked) (as salt: oxalate) [Compound 15c, (1′-Benzoyl-3′-hydroxy-[1,4′-bipiperidin]-4-yl)(4-fluorophenyl)methanone]
other
  melting point: 152 °C (dec.)

## COc1ccc(C(=O)C2CCN(C3CCN(C(=O)c4ccc(F)cc4)CC3O)CC2)cc1 (centres unmarked) (as salt: oxalate) [Compound 15e, (1′-(4-Fluorobenzoyl)-3′-hydroxy-[1,4′-bipiperidin]-4-yl)(4-methoxyphenyl)methanone]
other
  melting point: 216 °C (dec.)

## COc1ccc(C(=O)C2CCN(C3CCN(C(=O)c4ccncc4)CC3O)CC2)cc1 (centres unmarked) (as salt: oxalate) [Compound 15g, (3′-Hydroxy-1′-isonicotinoyl-[1,4′-bipiperidin]-4-yl)(4-methoxyphenyl)methanone]
other
  melting point: 220 °C (dec.)

## Cn1cccc1C(=O)C1CCN(C2Cc3ccccc3CC2O)CC1 (centres unmarked) (as salt: oxalate) [OS-5-60, (1-(3-Hydroxy-1,2,3,4-tetrahydronaphthalen-2-yl)piperidin-4-yl)(1-methyl-1H-pyrrol-2-yl) methanone oxalate]
other
  melting point: 212 to 213 °C

## Cc1ccc(C(=O)C2CCN(C3Cc4c(N)cccc4CC3O)CC2)cn1 (centres unmarked) (as salt: oxalate) [OS-5-70, (1-(8-amino-3-hydroxy-1,2,3,4-tetrahydronaphthalen-2-yl)piperidin-4-yl)(6-methylpyridin-3-yl)methanone oxalate]
other
  melting point: 98 to 103 °C

## COc1ccc(C(=O)C2CCN(C3Cc4c(N)cccc4CC3O)CC2)cn1 (centres unmarked) (as salt: oxalate) [OS-5-82, (1-(8-Amino-3-hydroxy-1,2,3,4-tetrahydronaphthalen-2-yl)piperidin-4-yl)(6-methoxypyridin-3-yl)methanone oxalate]
other
  melting point: 81.4 to 83.2 °C

## Nc1cccc2c1CC(N1CCC(C(=O)c3cccnc3)CC1)C(O)C2 (centres unmarked) (as salt: oxalate) [OS-5-110, (1-(8-Amino-3-hydroxy-1,2,3,4-tetrahydronaphthalen-2-yl)piperidin-4-yl)(pyridin-3-yl)methanone oxalate]
other
  melting point: 109 to 111.2 °C

## COc1ccc(C(=O)C2CCN(C3CCN(Cc4ccccc4)CC3O)CC2)cc1 (racemic) (as salt: oxalate) [Compound 14g, (1′-Benzyl-3′-hydroxy-[1,4′-bipiperidin]-4-yl)(4-methoxyphenyl)methanone]
other
  melting point: 234 °C (dec.)

## COc1ccc(C(=O)C2CCN(C3CCN(Cc4ccncc4)CC3O)CC2)cc1 (racemic) (as salt: oxalate) [Compound 14h, (3′-Hydroxy-1′-(pyridin-4-ylmethyl)-[1,4′-bipiperidin]-4-yl)(4-methoxyphenyl)methanone]
other
  melting point: 188 °C (dec.)

## O=C(c1ccc([18F])cc1)C1CCN(C2Cc3ccccc3CC2O)CC1 (racemic) [FBBV, (±)-trcms-2-Hydroxy-3-(4-(4-[^18F]fluorobenzoyDpiperidino)tetralin]
[1]
  Ki: 2.7 nM

## Cc1ccc(C2CCN(C3CCCCC3O)CC2)cc1 (single isomer, unassigned; (-)) [(−)-p-methylvesamicol]
[2]
  Ki: 8.1 nM

## OC1CCCCC1N1CCC(c2ccccc2)CC1 (single isomer, unassigned; (-)) [(−)-vesamicol, (−)-trans-2-(4-phenylpiperidino)cyclohexanol]
[2]
  Ki: 73.5 nM

## O[C@H]1CCCC[C@@H]1N1CCC(c2ccc(I)s2)CC1 [(1S,2S)-2-(4-(5-iodothiophen-2-yl)piperidin-1-yl)cyclohexanol]
[2]
  Ki: 9.39 nM

## Cc1ccc(C(=O)C2CCN(C3Cc4ccccc4CC3O)CC2)cn1 (centres unmarked) [OS-5-40, oxalate]
[3]
  Ki: 2110 ± 289 nM
[4]
  Ki: 3770 ± 886 nM
[5]; [9]
  Ki: 3770 ± 886 nM

## Cn1cccc1C(=O)C1CCN(C2Cc3ccccc3CC2O)CC1 (centres unmarked) [OS-5-60, (1-(3-Hydroxy-1,2,3,4-tetrahydronaphthalen-2-yl)piperidin-4-yl)(1-methyl-1H-pyrrol-2-yl) methanone oxalate]
[6]
  Ki: 18.4 ± 2.54 nM
  VAChT/σ selectivity: moderate or high
  σ1/VAChT: 70.7
  σ2/VAChT: 138.8
[3]
  Ki: 1300 ± 93 nM
[4]
  Ki: 2550 ± 339 nM
[5]; [9]
  Ki: 2550 ± 339 nM

## COc1ccc(C(=O)C2CCN(C3Cc4c(N)cccc4CC3O)CC2)cn1 (centres unmarked) [OS-5-82, (1-(8-Amino-3-hydroxy-1,2,3,4-tetrahydronaphthalen-2-yl)piperidin-4-yl)(6-methoxypyridin-3-yl)methanone oxalate]
[7]; Table 4, Ki values of VAChT specific compounds, tissue not given, read-out: Sigma-1 σ1
  Ki: 5682 ± 26 nM
[8]; Table 4, Ki values of VAChT specific compounds, source not given, read-out: VAChT
  Ki: 23.3 ± 3.43 nM
[6]
  Ki: 48 ± 11.4 nM
  VAChT/σ selectivity: moderate or high
  σ1/VAChT: 118.4
  σ2/VAChT: 225.3
[3]
  Ki: 5682 ± 26 nM
[4]
  Ki: 10800 ± 1280 nM
[5]; Table 4, Ki values of VAChT specific compounds, tissue not given, read-out: Sigma-2 σ1
  Ki: 10800 ± 1280 nM

## Nc1cccc2c1CC(N1CCC(C(=O)c3cccnc3)CC1)C(O)C2 (centres unmarked) [OS-5-110, (1-(8-Amino-3-hydroxy-1,2,3,4-tetrahydronaphthalen-2-yl)piperidin-4-yl)(pyridin-3-yl)methanone oxalate]
[8]; VAChT (nM), Table 4, Ki values of VAChT specific compounds, source not given
  Ki: 2.2 nM
[6]
  Ki: 118 ± 23.6 nM
  VAChT/σ selectivity: moderate or high
  σ1/VAChT: 172.4
  σ2/VAChT: 43.0
[3]
  Ki: 20300 ± 8130 nM
[4]
  Ki: 5080 ± 221 nM
[5]; [9]
  Ki: 5080 ± 221 nM

## O=C(c1ccc(OCCF)cc1)C1CCN(C2Cc3ccccc3CC2O)CC1 (centres unmarked) [TZ-3-148]
[6]
  VAChT/σ selectivity: poor selectivity
[3]
  Ki: 13.2 ± 0.2 nM
[4]
  Ki: 1890 ± 239 nM

## CNc1ccc(C(=O)C2CCN(C3Cc4ccccc4CC3O)CC2)cc1 (centres unmarked) [TZ-3-156]
[6]
  Ki: 3.03 nM
  VAChT/σ selectivity: high selectivity
  σ1/VAChT: 100.5
  σ2/VAChT: 2040
[3]
  Ki: 13.2 ± 0.48 nM
[4]
  Ki: 6180 ± 537 nM

## O=C(c1ccc(OCCF)nc1)C1CCN([C@H]2Cc3ccccc3C[C@@H]2O)CC1 [TZ-5-3]
[6]
  Ki: 38 ± 3.84 nM
  VAChT/σ selectivity: moderate or high
  σ1/VAChT: 55.8
  σ2/VAChT: 48.9
[3]
  Ki: 2120 ± 49 nM
[4]
  Ki: 1860 ± 144 nM

## OC1CN(Cc2cccc(I)c2)CCC1N1CCC(c2ccccc2)CC1 (centres unmarked) [meta-iodobenzyltrozamicol]
[2]
  Ki: 92 nM

## (4-Fluorophenyl)(4′-hydroxy-1′-(pyridin-4-ylmethyl)-[1,3′-bipiperidin]-4-yl)methanone [Compound 16d]
[7]; membrane preparations of guinea pig brain, mean ± SEM, at least three experiments, read-out: σ1 (Ki)
  Ki: 1160 ± 128 nM
[7]; ratio of Ki values, Table 1
  σ1/VAChT selectivity: 0.20
  σ1/σ2 selectivity: 11
[8]; expressed human VAChT, mean ± SEM, read-out: VAChT (Ki)
  Ki: 237 nM
[5]; homogenates of rat liver, mean ± SEM, read-out: σ2 (Ki)
  Ki: 13000 ± 2630 nM
